Laboratory results published in US8580815B2, “Derivatives of azaindoles as inhibitors of protein kinases ABL and SRC” (Oribase Pharma, priority 2009, dated 2013).
Values joined by “and” are separate entries in the source; they are usually repeats but may differ in a detail not shown here. Equal entries are not always repeated. Where two headings read alike, the source gives them in different places.

What was measured:
Abl T315I = Abl T315I (Homo sapiens (Human), UniProt P00519, T315I); test: Reaction Biology Corp. kinase assay, mutated Abl T315I; type: biochemical; settings: Reaction Biology Corp.; for inhibition at 10 µM: read-out: % inhibition of kinase activity, Abl T315I (category); for IC50: ATP at 10 μM, read-out: IC50 on kinase Abl T315I (category)
Experimental: (§1) 4 compounds were tested for their capacity to inhibit various mutated kinases AbI (American company, Reaction Biology Corp.).

[1] = test system: K562 cells expressing kinase Bcr-AbI; test: Inhibition of cellular proliferation (MTT), K562 cells; type: cell-based, human
Experimental: Cellular tests were carried out at the Montpellier Cancer Research Centre. The inhibition of proliferation by our compounds was analysed on 2 cell lines (U937 and K562) by calculating the IC50, testing 6 concentrations in triplicate for each of the compounds and for each line.
Cells in exponential phase were seeded in 96-well plates at a concentration of 10^4 cells/100 μL/well. The final concentrations of compound in the well in contact with the cells were 0.1; 0.3; 0.9; 3.3; 10; 30; 90 μM. […]

Src kinase = Src kinase (Homo sapiens (Human), UniProt P12931); test: Reaction Biology Corp. kinase assay, Src; settings: compounds tested by Reaction Biology Corp.; for IC50: IC50 on kinase Src (category), ATP at 10 μM; for inhibition at 10 µM: read-out: % inhibition of kinase activity, Src (category), 10 μM
Abl WT = Abl WT (Homo sapiens (Human), UniProt P00519); test: Reaction Biology Corp. kinase assay, Abl WT; type: biochemical; settings: compounds tested by Reaction Biology Corp.; for inhibition at 10 µM: read-out: % inhibition of kinase activity, Abl WT (category); for IC50: ATP at 10 μM, read-out: IC50 on kinase Abl WT (category)
Experimental: as §1

[2] = Homo sapiens, K562, 24 h, 24 h incubation, read-out: IC50 at 24 h on K562 (category)
[3] = Homo sapiens, K562, 72 h, read-out: IC50 at 72 h on K562 (category), 72 h incubation
[4] = Homo sapiens, K562, incubation time not stated (24 h and/or 72 h), read-out: IC50 for the K562 Bcr-AbI kinase (category)

Sequence of Src kinase (P12931 whole entry, looked up): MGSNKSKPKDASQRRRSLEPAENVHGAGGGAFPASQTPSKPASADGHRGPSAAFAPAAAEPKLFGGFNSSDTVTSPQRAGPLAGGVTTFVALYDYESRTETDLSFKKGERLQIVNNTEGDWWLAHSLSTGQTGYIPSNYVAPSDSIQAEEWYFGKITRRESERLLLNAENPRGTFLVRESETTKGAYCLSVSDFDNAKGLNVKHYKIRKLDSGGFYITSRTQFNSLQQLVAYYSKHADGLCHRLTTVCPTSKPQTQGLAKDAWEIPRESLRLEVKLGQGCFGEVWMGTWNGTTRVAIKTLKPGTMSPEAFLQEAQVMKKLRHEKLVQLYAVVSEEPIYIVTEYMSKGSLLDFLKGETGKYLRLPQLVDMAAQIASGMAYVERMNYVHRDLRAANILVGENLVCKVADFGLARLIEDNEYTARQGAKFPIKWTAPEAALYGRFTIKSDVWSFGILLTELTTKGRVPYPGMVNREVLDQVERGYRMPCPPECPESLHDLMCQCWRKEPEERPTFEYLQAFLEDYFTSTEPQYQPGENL

inhibition at 10 µM (Abl T315I)	IC50 (Abl T315I)	IC50 [1, 2]	IC50 [1, 3]	IC50 [1, 4]	IC50 (Src kinase)	inhibition at 10 µM (Src kinase)	inhibition at 10 µM (Abl WT)	IC50 (Abl WT)	IC50 ([1]; incubation time not stated (24 h and/or 72 h), read-out: IC50 for the K562 Bcr-AbI kinase (category))	SMILES
> 50%	100 to 10000 nM	10 nM	< 10 nM	10 nM	1 to 100 nM	> 50%	> 50%	< 1 nM		COC(=O)c1cc2cc(NC(=O)c3cc(NC(=O)c4ccc(CN5CCC(N(C)C)C5)c(C(F)(F)F)c4)ccc3C)cnc2[nH]1 (stereo not shown) [ND0119, methyl 5-(5-(4-((3-(dimethylamino)pyrrolidin-1-yl)methyl)-3-(trifluoro-methyl)benzamido)-2-methylbenzamido)-1H-pyrrolo[2,3-b]pyridine-2-carboxylate]
< 10%		> 10000 nM	10 to 1000 nM		1 to 100 nM	> 50%	> 50%	1 to 100 nM		COC(=O)c1cc2cc(NC(=O)c3c(Cl)cccc3Cl)cnc2[nH]1 [ND0072, Methyl 5-(2,6-dichlorobenzamido)-1H-pyrrolo[2,3-b]pyridine-2-carboxylate]
> 50%	100 to 10000 nM	1000 to 10000 nM	10 to 1000 nM	10 nM	100 to 10000 nM	> 50%	> 50%	1 to 100 nM		COC(=O)c1cc2cc(NCc3ccc4[nH]ccc4c3)cnc2[nH]1 [ND0096]
> 50%	100 to 10000 nM	1000 to 10000 nM	< 10 nM		< 1 nM	> 50%	> 50%	< 1 nM		COC(=O)c1cc2cc(NCc3cc(NC(=O)c4ccc(CN5CCN(C)CC5)cc4)ccc3C)cnc2[nH]1 [ND0118, methyl 5-(5-(4-((4-methylpiperazin-1-yl)methyl)benzamido)-2-methyl-benzylamino)-1H-pyrrolo[2,3-b]pyridine-2-carboxylate]
< 10%					100 to 10000 nM	> 50%	> 50%	100 to 10000 nM		COC(=O)c1cc2cc(NCc3ccccc3Br)cnc2[nH]1 [ND0057]
< 10%						< 10%	10 to 50%			COC(=O)c1cc2cc(NC(=O)c3cccc(S(=O)(=O)NCc4ccco4)c3)cnc2[nH]1 [ND0086]
< 10%						10 to 50%	10 to 50%			COC(=O)c1cc2cc(Nc3ccncc3)cnc2[nH]1 [ND0058]
10 to 50%					100 to 10000 nM	> 50%	> 50%	100 to 10000 nM		COC(=O)c1cc2cc(NCc3nccs3)cnc2[nH]1 [ND0094]
10 to 50%		1000 to 10000 nM	10 to 1000 nM	10 nM	1 to 100 nM	> 50%	> 50%	1 to 100 nM		COC(=O)c1cc2cc(NCc3ccccc3C)cnc2[nH]1 [ND0090]
10 to 50%					100 to 10000 nM	> 50%	> 50%	100 to 10000 nM		COC(=O)c1cc2cc(NCc3cccs3)cnc2[nH]1 [ND0093]
< 10%					1 to 100 nM and 100 to 10000 nM	> 50%	> 50%	1 to 100 nM		COC(=O)c1cc2cc(NC(=O)c3ccccc3C(F)(F)F)cnc2[nH]1 [ND0077, Methyl 5-(2-(trifluoromethyl)benzamido)-1H-pyrrolo[2,3-b]pyridine-2-carboxylate]
< 10%		> 10000 nM	10 to 1000 nM		1 to 100 nM	> 50%		1 to 100 nM	> 10000 nM	COC(=O)c1cc2cc(NC(=O)c3c(C)cccc3Cl)cnc2[nH]1 [ND0074, Methyl 5-(2-chloro-6-methylbenzamido)-1H-pyrrolo[2,3-b]pyridine-2-carboxylate]
10 to 50%						10 to 50%	10 to 50%			COC(=O)c1cc2cc(Nc3ccc(I)cc3)cnc2[nH]1 [ND0108]
< 10%					100 to 10000 nM	> 50%	> 50%	100 to 10000 nM		COC(=O)c1cc2cc(NCc3ccccc3C(F)(F)F)cnc2[nH]1 [ND0091]
10 to 50%		10 nM	< 10 nM	10 nM	1 to 100 nM	> 50%	> 50%	< 1 nM		COC(=O)c1cc2cc(NC(=O)c3cc(NC(=O)c4ccc(CN5CCN(C)CC5)cc4)ccc3C)cnc2[nH]1 [ND0117, methyl 5-(5-(4-((4-methylpiperazin-1-yl)methyl)benzamido)-2-methylbenzamido)-1H-pyrrolo[2,3-b]pyridine-2-carboxylate]
< 10%					100 to 10000 nM	> 50%	> 50%	100 to 10000 nM		COC(=O)c1cc2cc(NCc3cc[nH]n3)cnc2[nH]1 [ND0098]
< 10%						10 to 50%	10 to 50%			COC(=O)c1cc2cc(Nc3cccc(I)c3)cnc2[nH]1 [ND0103]
< 10%						10 to 50%	10 to 50%			COC(=O)c1cc2cc(NC(=O)c3cccs3)cnc2[nH]1 [ND0079, Methyl 5-(thiophene-2-carboxamido)-1H-pyrrolo[2,3-b]pyridine-2-carboxylate]
< 10%		1000 to 10000 nM	10 to 1000 nM	10 nM		> 50%	> 50%	100 to 10000 nM		COC(=O)c1cc2cc(NC(=O)c3ccccc3C)cnc2[nH]1 [ND0076, Methyl 5-(2-methylbenzamido)-1H-pyrrolo[2,3-b]pyridine-2-carboxylate]
< 10%						10 to 50%	> 50%			COC(=O)c1cc2cc(NCc3ccc(S(N)(=O)=O)cc3)cnc2[nH]1 [ND0101]
< 10%						< 10%	> 50%	100 to 10000 nM		COC(=O)c1cc2cc(NC(=O)c3ccc4[nH]ccc4c3)cnc2[nH]1 [ND0082]
< 10%						10 to 50%	> 50%	100 to 10000 nM		COC(=O)c1cc2cc(NC(=O)c3cc(C)n[nH]3)cnc2[nH]1 [ND0085]
< 10%						10 to 50%	10 to 50%			COC(=O)c1cc2cc(NC(=O)c3ccccc3OC(F)(F)F)cnc2[nH]1 [ND0078, Methyl 5-(2-(trifluoromethoxy)benzamido)-1H-pyrrolo[2,3-b]pyridine-2-carboxylate]
10 to 50%		1000 to 10000 nM	10 to 1000 nM	10 nM	1 to 100 nM	> 50%	> 50%	1 to 100 nM		COC(=O)c1cc2cc(NCc3c(Cl)cccc3Cl)cnc2[nH]1 [ND0087]
< 10%					100 to 10000 nM	> 50%	> 50%	100 to 10000 nM		COC(=O)c1cc2cc(NCc3ccccc3OC)cnc2[nH]1 [ND0088]
< 10%						< 10%	10 to 50%			COC(=O)c1cc2cc(NCc3ccccc3OC(F)(F)F)cnc2[nH]1 [ND0092]
< 10%						10 to 50%	10 to 50%			COC(=O)c1cc2cc(NC(=O)c3ccccc3OC)cnc2[nH]1 [ND0073, Methyl 5-(2-methoxybenzamido)-1H-pyrrolo[2,3-b]pyridine-2-carboxylate]
< 10%		> 10000 nM	10 to 1000 nM		1 to 100 nM	> 50%	> 50%	1 to 100 nM		COC(=O)c1cc2cc(NCc3c(C)cccc3Cl)cnc2[nH]1 [ND0089]
